For ten compounds, DC50, Dmax and IC50 results are on record in patent US20230295118A1 (EnhancedBio Inc., priority 2022, published 2023).

pIC50: −log10 of the molar value. Like-named read-outs stand apart in the source and are kept apart here.

Assay type in all cases: cell-based
For one test, the target named is T1, CDK4 (Homo sapiens, UniProt P11802).
T1 construct: endogenous in cells
As to the kind of experiment: CDK4 degradation (DC50, Dmax).

For test [1], the system named is mantle cell lymphoma cell (Mino or JeKo-1). The experiment in a line: Antiproliferative effect, MTS cell viability assay. Summed up:
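MTS read-out (formazan absorbance at 490 nm) after 72 h exposure of Mino cells to 0–1 μM compound (0.0001, 0.001, 0.01, 0.1, 1 μM). Palbociclib and abemaciclib served as positive controls.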
(In general: Tetrazolium assays rely on reduction of a dye to a coloured formazan, in cell work by metabolically active cells.)

Another test addresses T2, CDK6 (Homo sapiens, UniProt Q00534).
T2 construct: endogenous in cells
The experiment in a line: CDK6 degradation (DC50, Dmax).

[2] abbreviates: 72 h, mantle cell lymphoma cell (Mino or JeKo-1), MTS assay, read-out: IC50 (anti-proliferation).

T2 sequence (Q00534 whole entry): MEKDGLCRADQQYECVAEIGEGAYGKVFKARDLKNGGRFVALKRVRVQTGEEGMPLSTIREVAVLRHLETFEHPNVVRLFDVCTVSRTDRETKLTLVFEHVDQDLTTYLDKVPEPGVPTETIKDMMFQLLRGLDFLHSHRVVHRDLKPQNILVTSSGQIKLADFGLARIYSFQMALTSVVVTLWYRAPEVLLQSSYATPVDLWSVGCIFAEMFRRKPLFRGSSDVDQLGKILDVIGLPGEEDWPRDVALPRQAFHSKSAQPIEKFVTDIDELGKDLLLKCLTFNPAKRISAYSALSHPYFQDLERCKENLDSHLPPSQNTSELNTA
T1 sequence (P11802 whole entry): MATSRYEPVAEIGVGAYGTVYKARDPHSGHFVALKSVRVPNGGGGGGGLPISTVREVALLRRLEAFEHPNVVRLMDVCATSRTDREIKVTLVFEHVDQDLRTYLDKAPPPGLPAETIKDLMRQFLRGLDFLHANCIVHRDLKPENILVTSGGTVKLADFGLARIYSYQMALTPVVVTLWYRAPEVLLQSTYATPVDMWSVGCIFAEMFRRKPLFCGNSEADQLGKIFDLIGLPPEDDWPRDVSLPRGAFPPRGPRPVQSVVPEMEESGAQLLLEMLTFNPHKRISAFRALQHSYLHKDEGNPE

At CDK4, `CC(=O)c1c(C)c2cnc(Nc3ccc(N4CCN(C5CCN(C(=O)N6CCC(c7ccc8c(c7)CN(C7CCC(=O)NC7=O)C8=O)CC6)CC5)CC4)cn3)nc2n(C2CCCC2)c1=O` (centres unmarked) [Compound 38, 3-(5-(1-(4-(4-(6-((6-acetyl-8-cyclopentyl-5-methyl-7-oxo-7,8-dihydropyrido[2,3-d]pyrimidin-2-yl)amino)pyridin-3-yl)piperazin-1-yl)piperidine-1-carbonyl)piperidin-4-yl)-1-oxoisoindolin-2-yl)piperidine-2,6-dione] returned a 50% degradation concentration (DC50) of over 0.2 µM and a Dmax of over 50%. Besides, in test [1] (setting [2]), the pIC50 was under 6.70. On CDK6, the DC50 was over 0.2 µM and the Dmax is over 50%.
Regarding `CC(=O)c1c(C)c2cnc(Nc3ccc(N4CCN(CC5CN(c6ccc(N7CCC(=O)NC7=O)cc6)C5)CC4)cn3)nc2n(C2CCCC2)c1=O` [Compound 111, 1-(4-(3-((4-(6-((6-acetyl-8-cyclopentyl-5-methyl-7-oxo-7,8-dihydropyrido[2,3-d]pyrimidin-2-yl)amino)pyridin-3-yl)piperazin-1-yl)methyl)azetidin-1-yl)phenyl) dihydropyrimidine-2,4(1H,3H)-dione], the DC50 on CDK4 and on CDK6 was under 0.05 µM in each case. The greatest degradation seen (Dmax) at CDK4 and at CDK6 was over 80% throughout. Moreover, the pIC50 in test [1] (setting [2]) is over 7.30.
At CDK4, `CC(=O)c1c(C)c2cnc(Nc3ccc(N4CCN(CCN5CCN(c6ccc7c(c6)C(=O)N(C6CCC(=O)NC6=O)C7=O)CC5)CC4)cn3)nc2n(C2CCCC2)c1=O` (centres unmarked) [Compound 67, 5-(4-(2-(4-(6-((6-acetyl-8-cyclopentyl-5-methyl-7-oxo-7,8-dihydropyrido[2,3-d]pyrimidin-2-yl)amino)pyridin-3-yl)piperazin-1-yl)ethyl)piperazin-1-yl)-2-(2,6-dioxopiperidin-3-yl) isoindoline-1,3-dione] showed a DC50 of under 0.05 µM and a Dmax of over 80%. The pIC50 in test [1] (setting [2]) is over 7.30. On CDK6, this compound showed a DC50 of 0.05 to 0.2 µM and a maximal degradation (Dmax) of over 80%.
Consider `CC(=O)c1c(C)c2cnc(Nc3ccc(N4CCN(C5CN(c6cccc7c6C(=O)N(C6CCC(=O)NC6=O)C7=O)C5)CC4)cn3)nc2n(C2CCCC2)c1=O` (centres unmarked) [Compound 79, 4-(3-(4-(6-((6-acetyl-8-cyclopentyl-5-methyl-7-oxo-7,8-dihydropyrido[2,3-d]pyrimidin-2-yl)amino)pyridin-3-yl)piperazin-1-yl)azetidin-1-yl)-2-(2,6-dioxopiperidin-3-yl)isoindoline-1,3-dione], for which the DC50 at CDK4 and at CDK6 was 0.05 to 0.2 µM each time. For the same compound, the greatest degradation seen (Dmax) at CDK4 and at CDK6 was over 60% each time. For the same compound, the pIC50 in test [1] (setting [2]) was 6.70 to 7.30.
For `CC(=O)c1c(C)c2cnc(Nc3ccc(N4CCN(C(=O)N5CCC(CCN6CCN(c7ccc8c(c7)C(=O)N(C7CCC(=O)NC7=O)C8=O)CC6)CC5)CC4)cn3)nc2n(C2CCCC2)c1=O` (centres unmarked) [Compound 19, 5-(4-(2-(1-(4-(6-((6-acetyl-8-cyclopentyl-5-methyl-7-oxo-7,8-dihydropyrido[2,3-d]pyrimidin-2-yl)amino)pyridin-3-yl)piperazine-1-carbonyl)piperidin-4-yl)ethyl)piperazin-1-yl)-2-(2,6-dioxopiperidin-3-yl)isoindoline-1,3-dione], the DC50 at CDK4 and on CDK6 was 0.05 to 0.2 µM throughout. Moreover, the Dmax on CDK4 and on CDK6 was over 60% each time. In addition, the pIC50 in test [1] (setting [2]) is over 7.30.
As to `CC(=O)c1c(C)c2cnc(Nc3ccc(N4CCN(CC5CCN(C(=O)N6CCN(c7ccc8c(c7)CN(C7CCC(=O)NC7=O)C8=O)CC6)CC5)CC4)cn3)nc2n(C2CCCC2)c1=O` (centres unmarked) [Compound 32, 3-(5-(4-(4-((4-(6-((6-acetyl-8-cyclopentyl-5-methyl-7-oxo-7,8-dihydropyrido[2,3-d]pyrimidin-2-yl)amino)pyridin-3-yl)piperazin-1 - yl)methyl)piperidine-1-carbonyl)piperazin-1-yl)-1-oxoisoindolin-2-yl)piperidine-2,6-dione], at CDK4, the half-maximal degradation concentration (DC50) lay within 0.05 to 0.2 µM and the maximal degradation (Dmax) is over 60%. For the same compound, the pIC50 in test [1] (setting [2]) was 6.70 to 7.30. At CDK6, this compound returned a DC50 of 0.05 to 0.2 µM and a Dmax of over 60%.
As for `CC(=O)c1c(C)c2cnc(Nc3ccc(N4CCN(CCCNc5cc6c(cc5F)C(=O)N(C5CCC(=O)NC5=O)C6=O)CC4)cn3)nc2n(C2CCCC2)c1=O` (centres unmarked) [Compound 51, 5-((3-(4-(6-((6-acetyl-8-cyclopentyl-5-methyl-7-oxo-7,8-dihydropyrido[2,3-d]pyrimidin-2-yl)amino)pyridin-3-yl)piperazin-1-yl)propyl)amino)-2-(2,6-dioxopiperidin-3-yl)-6-fluoroisoindoline-1,3-dione], the DC50 at CDK4 and at CDK6 was 0.05 to 0.2 µM each time. In addition, the Dmax on CDK4 and at CDK6 was over 80% throughout. For the same compound, the pIC50 in test [1] (setting [2]) was over 7.30.
As to `Cc1nc2c(F)cc(-c3nc(Nc4ccc(CN5CCN(CCCNc6ccc7c(c6)CN(C6CCC(=O)NC6=O)C7=O)CC5)cn4)ncc3F)cc2n1C(C)C` (centres unmarked) [Compound 74, 3-(5-((3-(4-((6-((5-fluoro-4-(4-fluoro-1-isopropyl-2-methyl-1H-benzo[d]imidazol-6-yl)pyrimidin-2-yl)amino)pyridin-3-yl)methyl)piperazin-1-yl)propyl)amino)-1-oxoisoindolin-2-yl)piperidine-2,6-dione], on CDK4, the DC50 is under 0.05 µM and the Dmax was over 80%. In test [1] (setting [2]), the pIC50 was over 7.30. At CDK6, this compound came in with a half-maximal degradation concentration (DC50) of under 0.05 µM and a Dmax of over 80%.
At CDK4, `CC(=O)c1c(C)c2cnc(Nc3ccc(N4CCN(C5CCN(C(=O)N6CCN(c7ccc8c(c7)C(=O)N(C7CCC(=O)NC7=O)C8=O)CC6)CC5)CC4)cn3)nc2n(C2CCCC2)c1=O` (centres unmarked) [Compound 35, 5-(4-(4-(4-(6-((6-acetyl-8-cyclopentyl-5-methyl-7-oxo-7,8-dihydropyrido[2,3-d]pyrimidin-2-yl)amino)pyridin-3-yl)piperazin-1-yl)piperidine-1-carbonyl)piperazin-1-yl)-2-(2,6-dioxopiperidin-3-yl)isoindoline-1,3-dione] displayed a 50% degradation concentration (DC50) of 0.05 to 0.2 µM and a Dmax of over 60%. Also, in test [1] (mantle cell lymphoma cell (Mino or JeKo-1); MTS assay, 72 h; read-out: IC50 (anti-proliferation)), the pIC50 is 6.70 to 7.30. Further, on CDK6, the DC50 is over 0.2 µM and the greatest degradation seen (Dmax) was over 60%.
On to `Cc1nc2c(F)cc(-c3nc(Nc4ccc(CN5CCN(C(=O)C6CN(c7ccc8c(c7)C(=O)N(C7CCC(=O)NC7=O)C8=O)C6)CC5)cn4)ncc3F)cc2n1C(C)C` (centres unmarked) [Compound 135, 2-(2,6-dioxopiperidin-3-yl)-5-(3-(4-((6-((5-fluoro-4-(4-fluoro-1-isopropyl-2-methyl-1H-benzo[d]imidazol-6-yl)pyrimidin-2-yl)amino)pyridin-3-yl)methyl)piperazine-1-carbonyl)azetidin-1-yl)isoindoline-1,3-dione], for which the DC50 was under 0.05 µM on CDK4 and 0.05 to 0.2 µM at CDK6. Moreover, the Dmax was over 80% on CDK4 and over 60% on CDK6. For the same compound, the pIC50 in test [1] (setting [2]) was over 7.30.

What is called DC50 is the concentration giving 50% degradation. One may read the Dmax as the greatest extent of degradation seen.
